From US9382222B2, “Benzyl sulfonamide derivatives as RORc modulators” (Genentech, Inc., priority 2012, dated 2016)

Biological target: T1, RORc ligand binding domain (Homo sapiens, UniProt P51449)
T1 construct: host or cells: E. coli
T1 sequence (P51449 269-508 limits assumed): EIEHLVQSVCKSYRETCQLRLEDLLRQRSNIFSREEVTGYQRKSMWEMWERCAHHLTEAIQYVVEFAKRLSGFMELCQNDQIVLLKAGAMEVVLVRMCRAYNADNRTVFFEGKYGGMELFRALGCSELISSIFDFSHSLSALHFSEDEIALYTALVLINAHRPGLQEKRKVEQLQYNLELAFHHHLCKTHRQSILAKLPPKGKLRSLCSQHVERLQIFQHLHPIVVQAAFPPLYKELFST
Experiment: In Vitro RORc Ligand Binding Assay
Conditions: displacement of 25-[3H]hydroxycholesterol (6 nM), 0.6 ug/mL RORc receptor, 3 h at 25° C.
Protocol: In Vitro RORc Ligand Binding Assay This assay was used to determine a compound's potency in inhibiting activity of RORc by determining, Kiapp, IC50, or percent inhibition values. […] On day of the assay, 100 uL of 0.05% CHAPS (in deionized H2O) was added to all wells of the GFB Unifilter plate and allowed soak for 1 h. A wash buffer of 50 mM HEPES (pH 7.4), 150 mM NaCl, and 5 mM MgCl2 was prepared to wash the filter plate. To prepare an assay buffer, BSA was added to the wash buffer to reach 0.01% and DTT was added to reach 1 mM. […] The 20× compound stocks were diluted in DMSO with Assay Buffer 4-fold to reach 5× the final test concentration in 25% DMSO (10 uL compound+30 uL Assay Buffer). Solutions were mixed by aspiration several times with a pipette set on 50 uL volume. For the assay, 10 uL of 5× compound stock solutions in 25% DMSO were added to the assay plate in duplicate. For two point screening, 10 mM stock compound solutions were diluted in DMSO to obtain 200 uM (20× the high test concentration) and then diluted 10-fold further to reach 20 uM (20× the low test concentration). The 20× stocks were diluted 4-fold with Assay Buffer (10 uL compound+30 uL Assay Buffer) to reach 5× the test concentrations (50 uM and 5 uM) and 10 uL were added to two assay plates for the duplicate wells. […] Add 20 uL to all wells to reach 6 nM final concentration in the assay. […] Stock receptor solution was diluted in assay buffer to obtain 1.5 ug/mL in Assay Buffer. 20 uL was added to all wells. For No Receptor samples, 20 uL Assay Buffer was substituted for receptor solution. […] Following addition to the wells, the plates were incubated 3 h at 25° C. Using a Packard Filtermate Harvester, the filter plate were washed 4 times following transfer of the incubated samples. Plates were dry-filtered completely (2 h at 50° C. or overnight at room temperature). 50 uL Microscint 0 was added to all wells and read on Topcount protocol Inverted. […] For NSB wells, 1 uM 25-hydroxycholesterol was also present.

IC50 [nM] | Structure (SMILES)
28 | CC(=O)N1CCN(c2ccc(S(=O)(=O)N(CC(C)C)c3ccccc3C(F)(F)F)cc2)CC1 [Compound 41, 4-(4-Acetyl-piperazin-1-yl)-N-isobutyl-N-(2-trifluoromethyl-phenyl)-benzenesulfonamide]
164 | CC(C)CN(c1cccc(Cl)c1)S(=O)(=O)c1ccc(O[C@@H]2CCCN(S(C)(=O)=O)C2)cc1 [Compound 42, N-(3-Chloro-phenyl)-N-isobutyl-4-((R)-1-methanesulfonyl-piperidin-3-yloxy)-benzenesulfonamide]
281 | CC(C)CN(c1cccc(Cl)c1)S(=O)(=O)c1ccc(O[C@H]2CCCN(S(C)(=O)=O)C2)cc1 [Compound 43, N-(3-Chloro-phenyl)-N-isobutyl-4-((S)-1-methanesulfonyl-piperidin-3-yloxy)-benzenesulfonamide]
117 | CC(C)CN(c1cccc(Cl)c1)S(=O)(=O)c1ccc(N[C@@H]2CCCN(S(C)(=O)=O)C2)cc1 [Compound 44, N-(3-Chloro-phenyl)-N-isobutyl-4-((R)-1-methanesulfonyl-piperidin-3-ylamino)-benzenesulfonamide]
271 | CC(C)CN(c1cccc(Cl)c1)S(=O)(=O)c1ccc(N[C@H]2CCCN(S(C)(=O)=O)C2)cc1 [Compound 45, N-(3-Chloro-phenyl)-N-isobutyl-4-((S)-1-methanesulfonyl-piperidin-3-ylamino)-benzenesulfonamide]
33 | CC(C)CN(c1ccccc1C(F)(F)F)S(=O)(=O)c1ccc(NC2CCN(S(C)(=O)=O)CC2)cc1 [Compound 46, N-Isobutyl-4-(1-methanesulfonyl-piperidin-4-ylamino)-N-(2-trifluoromethyl-phenyl)-benzenesulfonamide]
8 | CC(C)CN(c1cccc(F)c1F)S(=O)(=O)c1ccc(OC2CCN(S(C)(=O)=O)CC2)cc1 [Compound 49, N-(2,3-Difluoro-phenyl)-N-isobutyl-4-(1-methanesulfonyl-piperidin-4-yloxy)-benzenesulfonamide]
9 | CC(C)CN(c1ccc(F)cc1F)S(=O)(=O)c1ccc(OC2CCN(S(C)(=O)=O)CC2)cc1 [Compound 50, N-(2,4-Difluoro-phenyl)-N-isobutyl-4-(1-methanesulfonyl-piperidin-4-yloxy)-benzenesulfonamide]
8 | CC(C)CN(c1cc(F)ccc1F)S(=O)(=O)c1ccc(OC2CCN(S(C)(=O)=O)CC2)cc1 [Compound 51, N-(2,5-Difluoro-phenyl)-N-isobutyl-4-(1-methanesulfonyl-piperidin-4-yloxy)-benzenesulfonamide]
11 | CC(C)CN(c1c(F)cccc1F)S(=O)(=O)c1ccc(OC2CCN(S(C)(=O)=O)CC2)cc1 [Compound 52, N-(2,6-Difluoro-phenyl)-N-isobutyl-4-(1-methanesulfonyl-piperidin-4-yloxy)-benzenesulfonamide]
299 | CC(C)CN(c1ccc(F)cc1)S(=O)(=O)c1ccc(C(=O)N2CCN(S(C)(=O)=O)CC2)cc1 [Compound 53, N-(4-Fluoro-phenyl)-N-isobutyl-4-(4-methanesulfonyl-piperazine-1-carbonyl)-benzenesulfonamide]
244 | CC(=O)N1CCN(c2ccc(S(=O)(=O)N(Cc3cccc(C(F)(F)F)c3)CC(C)C)cc2)CC1 [Compound 58, 4-(4-Acetyl-piperazin-1-yl)-N-isobutyl-N-(3-trifluoromethyl-benzyl)-benzenesulfonamide]
483 | CC(C)CN([C@H](C)c1ccccc1)S(=O)(=O)c1ccc(N2CCN(S(C)(=O)=O)CC2)cc1 [Compound 62, N-Isobutyl-4-(4-methanesulfonyl-piperazin-1-yl)-N-((R)-1-phenyl-ethyl)-benzenesulfonamide]
39 | CC(C)CN([C@@H](C)c1ccccc1)S(=O)(=O)c1ccc(N2CCN(S(C)(=O)=O)CC2)cc1 [Compound 63, N-Isobutyl-4-(4-methanesulfonyl-piperazin-1-yl)-N-((S)-1-phenyl-ethyl)-benzenesulfonamide]
102 | CC(C)CN(Cc1ccc(OC(F)(F)F)cc1)S(=O)(=O)c1ccc(N2CCN(S(C)(=O)=O)CC2)cc1 [Compound 64, N-Isobutyl-4-(4-methanesulfonyl-piperazin-1-yl)-N-(4-trifluoromethoxy-benzyl)-benzenesulfonamide]
79 | COc1ccc(CN(CC(C)C)S(=O)(=O)c2ccc(N3CCN(S(C)(=O)=O)CC3)cc2)cc1 [Compound 66, N-Isobutyl-4-(4-methanesulfonyl-piperazin-1-yl)-N-(4-methoxy-benzyl)-benzenesulfonamide]
87 | CC(=O)N1CCN(c2ccc(S(=O)(=O)N(Cc3ccc(Cl)cc3)CC(C)C)cc2)CC1 [Compound 67, 4-(4-Acetyl-piperazin-1-yl)-N-(4-chloro-benzyl)-N-isobutyl-benzenesulfonamide]
20 | CC(C)CN(Cc1ccccc1C(F)(F)F)S(=O)(=O)c1ccc(N2CCN(S(C)(=O)=O)CC2)cc1F [Compound 69, 2-Fluoro-N-isobutyl-4-(4-methanesulfonyl-piperazin-1-yl)-N-(2-trifluoromethyl-benzyl)-benzenesulfonamide]
83 | CC(C)CN(Cc1ccc(OC(F)F)cc1)S(=O)(=O)c1ccc(N2CCN(S(C)(=O)=O)CC2)cc1 [Compound 72, N-(4-Difluoromethoxy-benzyl)-N-isobutyl-4-(4-methanesulfonyl-piperazin-1-yl)-benzenesulfonamide]
23 | CC(C)CN(Cc1ccccc1C(F)(F)F)S(=O)(=O)c1ccc(N2CCN(S(=O)(=O)N(C)C)CC2)cc1 [Compound 73, 4-{4-[Isobutyl-(2-trifluoromethyl-benzyl)-sulfamoyl]-phenyl}-piperazine-1-sulfonic acid dimethylamide]
8 | CC(C)CN(Cc1ccccc1C(F)(F)F)S(=O)(=O)c1ccc(N2CCN(S(C)(=O)=O)CC2)c(F)c1 [Compound 75, 3-Fluoro-N-isobutyl-4-(4-methanesulfonyl-piperazin-1-yl)-N-(2-trifluoromethyl-benzyl)-benzenesulfonamide]
31 | CC(=O)N1CCN(c2ccc(S(=O)(=O)N(Cc3ccccc3C(F)(F)F)C3CCC3)cc2)CC1 [Compound 76, 4-(4-Acetyl-piperazin-1-yl)-N-cyclobutyl-N-(2-trifluoromethyl-benzyl)-benzenesulfonamide]
25 | CN(C)S(=O)(=O)N1CCN(c2ccc(S(=O)(=O)N(Cc3ccccc3C(F)(F)F)C3CCC3)cc2)CC1 [Compound 77, 4-{4-[Cyclobutyl-(2-trifluoromethyl-benzyl)-sulfamoyl]-phenyl}-piperazine-1-sulfonic acid dimethylamide]
23 | C=C(c1ccccc1)N(CC(C)C)S(=O)(=O)c1ccc(N2CCN(S(C)(=O)=O)CC2)cc1 [Compound 78, N-Isobutyl-4-(4-methanesulfonyl-piperazin-1-yl)-N-(1-phenyl-vinyl)-benzenesulfonamide]
55 | CN(C)S(=O)(=O)N1CCN(c2ccc(S(=O)(=O)N(Cc3ccccc3C(F)(F)F)CC(F)(F)F)cc2)CC1 [Compound 79, 4-{4-[(2,2,2-Trifluoro-ethyl)-(2-trifluoromethyl-benzyl)-sulfamoyl]-phenyl}-piperazine-1-sulfonic acid dimethylamide]
87 | CC(=O)N1CCN(c2ccc(S(=O)(=O)N(Cc3ccccc3C(F)(F)F)CC(F)(F)F)cc2)CC1 [Compound 80, 4-(4-Acetyl-piperazin-1-yl)-N-(2,2,2-trifluoro-ethyl)-N-(2-trifluoromethyl-benzyl)-benzenesulfonamide]
110 | CC(=O)N1CCN(c2ccc(S(=O)(=O)N(Cc3ccccc3C(F)(F)F)C(C)(C)C)cc2)CC1 [Compound 81, 4-(4-Acetyl-piperazin-1-yl)-N-tert-butyl-N-(2-trifluoromethyl-benzyl)-benzenesulfonamide]
51 | CN(C)S(=O)(=O)N1CCN(c2ccc(S(=O)(=O)N(Cc3ccccc3C(F)(F)F)C(C)(C)C)cc2)CC1 [Compound 82, 4-{4-[tert-Butyl-(2-trifluoromethyl-benzyl)-sulfamoyl]-phenyl}-piperazine-1-sulfonic acid dimethylamide]
24 | CC(C)CN(Cc1ccccc1C(F)(F)F)S(=O)(=O)c1ccc(N2CCC(C(N)=O)CC2)cc1 [Compound 83, 1-{4-[Isobutyl-(2-trifluoromethyl-benzyl)-sulfamoyl]-phenyl}-piperidine-4-carboxylic acid amide]
